Series [1] addresses BuChE (Homo sapiens, UniProt P06276). Description: BuChE inhibition, modified Ellman's method. It counts as biochemical. As to conditions: for IC50: tested at 5–80 μg/mL.
Series [2] concerns the target AChE (Electrophorus electricus, UniProt O42275). As to the kind of experiment: biochemical. The series is classed as biochemical. As to conditions: for IC50: tested at 5–80 μg/mL.
In series [3] the test system is A549 human lung adenocarcinoma cells. Description: MTT cytotoxicity assay, A549. The series is classed as cell-based. The settings on record: for cytotoxicity (in words): A549, at the concentrations used; for IC50: Homo sapiens, A549, MTT, 24 h, read-out: IC50 A549 Cell Line. On the procedure:
(§1) C6 Rat glioma and NIH/3T3 mouse embryonic fibroblast cells were incubated in Dulbecco’s Modified Eagle’s Medium (DMEM) (Sigma, Deisenhofen, Germany) supplemented with 10% fetal calf serum (Gibco, Paisley, UK). A549 Human lung adenocarcinoma cells were incubated in 90% RPMI supplemented with 10% fetal bovine serum (Gibco). […] Exponentially growing cells were plated at 2 × 10^4 cells/mL into 96-well microtiter tissue culture plates (Nunc, Roskilde, Denmark) and incubated for 24 h before the addition of the drugs (the optimum cell number for cytotoxicity assays was determined in preliminary experiments).
(§2) The level of cellular 3-(4,5-dimethylthiazol-2-yl)-2,5-diphenyltetrazolium bromide (MTT) (Sigma) reduction was quantified as previously described in the literature with small modifications. […] At the end of this period, MTT was added to a final concentration of 0.5 mg/mL and the cells were incubated for 4 h at 37 °C. After the medium was removed, the formazan crystals formed by MTT metabolism were solubilized by addition of 200 µL DMSO to each well and absorbance was read at 540 nm with a microtiter plate spectrophotometer (Bio-Tek Plate Reader, Winooski, VT, USA). Every concentration was repeated in three wells.

Series [4] has as its system C6 rat glioma cells. As to the kind of experiment: MTT cytotoxicity assay, C6. As to conditions: for cytotoxicity (in words): C6, at the concentrations used; for IC50: Rattus norvegicus, C6, MTT, 24 h, read-out: IC50 C6 Cell Line. The series is classed as cell-based. As for the experimental part: as §1, §2
The test system of series [5] is NIH/3T3 mouse embryonic fibroblast cells. Description: MTT cytotoxicity assay, NIH/3T3. It counts as cell-based. The settings on record: NIH3T3, 24 h, read-out: IC50 NIH/3T3 Cell Line. As for the experimental part:
C6 Rat glioma and NIH/3T3 mouse embryonic fibroblast cells were incubated in Dulbecco’s Modified Eagle’s Medium (DMEM) (Sigma, Deisenhofen, Germany) supplemented with 10% fetal calf serum (Gibco, Paisley, UK). A549 Human lung adenocarcinoma cells were incubated in 90% RPMI supplemented with 10% fetal bovine serum (Gibco). All media were supplemented with 100 IU/mL penicillin-streptomycin (Gibco) and cells were incubated at 37 °C in a humidified atmosphere of 95% air and 5% CO2. Exponentially growing cells were plated at 2 × 10^4 cells/mL into 96-well microtiter tissue culture plates (Nunc, Roskilde, Denmark) and incubated for 24 h before the addition of the drugs (the optimum cell number for cytotoxicity assays was determined in preliminary experiments). The stock solutions of the compounds were prepared in dimethyl sulfoxide (DMSO; Sigma Aldrich, Poole, UK) and further dilutions were made with fresh culture medium (the concentration of DMSO in the final culture medium was <0.1% which had no effect on the cell viability).
as §2

Series [6] relates to C6 cells. As to the kind of experiment: DNA synthesis inhibition (BrdU ELISA), C6. It counts as cell-based, rat. The settings on record: C6, compound at its IC50, 24 h. On the procedure:
(§3) The immunostaining procedure was carried out with specific anti-BrdU antibodies in the S-phase of the cell cycle. DNA synthesis inhibitory effects of all compounds were evaluated for 24 h. A549 and C6 cell lines were incubated with three different concentrations of the compounds that were determined according to their IC50 values. Cisplatin was used as a positive control.
(§4) Analysis of DNA synthesis was measured by a Cell Proliferation ELISA, BrdU (colorimetric) kit (Roche, Mannheim, Germany). This immunostaining procedure is based on measuring the incorporation of bromodeoxyuridine (BrdU) into nuclear DNA in place of thymidine during the S-phase of the cell cycle using specific anti-BrdU antibodies. […] Firstly cells were seeded into 96 well flat-bottomed microtiter plates at a density of 2 × 10^3. […] Microtiter plates were incubated at 37 °C in a 5% CO2/95% air humidified atmosphere for 24 h. Cells were labeled with 10 µL BrdU solution for 2 h and then fixed. Anti-BrdU-POD (100 µL) was added and incubated for 90 min. Finally, wells were washed with BPS and cells were incubated with substrate. Absorbance of the samples was measured with an ELX808-IU Bio-Tek apparatus at 492 nm. All experiments were repeated two times. For each compound dose, dublicate wells were used.

Series [7] relates to C6 cells. As to the kind of experiment: Annexin V-PI flow cytometry of apoptosis, C6. The series is classed as cell-based. The settings on record: IC50 dose, 24 h. As for the experimental part: (§5) Annexin V staining protocol was applied according to the manufacturer’s instructions (BD Pharmingen). The cells were then briefly washed with cold phosphate buffer saline (PBS) and suspended in a binding buffer at a concentration of 1 × 10^6 cells/mL. Then, 100 µL of this solution containing 1 × 10^5 cells was transferred to a 5 mL test tube. After 5 µL of Annexin-V and PI was added, the cells were incubated for 15 min at room temperature in the dark. Then 400 µL of 1x Binding Buffer was added to each tube and the cells were processed for data acquisition, and analyzed on a Becton–Dickinson FACS Aria using […] Version 6.1.1. Software (BD Biosciences, San Jose, CA, USA).

For series [8], the system named is A549 cells. As to the kind of experiment: Annexin V-PI flow cytometry of apoptosis, A549. The series is classed as cell-based. The settings on record: IC50 dose, 24 h. On the procedure:
as §5

The test system of series [9] is A549 cells. As to the kind of experiment: Mitochondrial membrane potential (JC-1) flow cytometry, A549. It counts as cell-based, human. The settings on record: IC50 dose, 24 h. As for the experimental part: (§6) During apoptosis, several key events occur in mitochondria including the release of cytochrome c, changes in electron transport, and loss of mitochondrial transmembrane potential (ΔΨm). For this reason, ΔΨm is an important parameter of mitochondrial function in apoptosis.
(§7) The cells were seeded in six-well plates at a density of 10^5 cells/mL, and the IC50 dose of compounds 2, 5 and 10 was added to cells. The cells were incubated in 5% CO2 air-conditioned atmosphere at 37 °C. […] 5,5′,6,6′-Tetrachloro-1,1′,3,3′-tetraethylbenzimidazolylcarbocyanine iodide (JC-1) dye solution (1× assay buffer + JC-1 stock solution) was added to the cells. The stock solution was prepared by dissolving DMSO. Then the samples were incubated at a temperature of 37 °C for 10–15 min. After incubation, the cells were washed twice with an assay buffer and analyzed by BD FACS Aria Cell Sorter Software version 6.1.1 flow cytometry (BD Biosciences). The cells showing mitochondrial membrane potential disruption were determined as a percentage of all cells.

Series [10] relates to A549 cells. Description: DNA synthesis inhibition (BrdU ELISA), A549. It counts as cell-based, human. The settings on record: A549, compound at its IC50, 24 h. On the procedure: as §3, §4
In series [11] the test system is C6 cells. As to the kind of experiment: Mitochondrial membrane potential (JC-1) flow cytometry, C6. It counts as cell-based, rat. As to conditions: IC50 dose, 24 h. As for the experimental part: as §6, §7

AChE, sequence (O42275 24-633): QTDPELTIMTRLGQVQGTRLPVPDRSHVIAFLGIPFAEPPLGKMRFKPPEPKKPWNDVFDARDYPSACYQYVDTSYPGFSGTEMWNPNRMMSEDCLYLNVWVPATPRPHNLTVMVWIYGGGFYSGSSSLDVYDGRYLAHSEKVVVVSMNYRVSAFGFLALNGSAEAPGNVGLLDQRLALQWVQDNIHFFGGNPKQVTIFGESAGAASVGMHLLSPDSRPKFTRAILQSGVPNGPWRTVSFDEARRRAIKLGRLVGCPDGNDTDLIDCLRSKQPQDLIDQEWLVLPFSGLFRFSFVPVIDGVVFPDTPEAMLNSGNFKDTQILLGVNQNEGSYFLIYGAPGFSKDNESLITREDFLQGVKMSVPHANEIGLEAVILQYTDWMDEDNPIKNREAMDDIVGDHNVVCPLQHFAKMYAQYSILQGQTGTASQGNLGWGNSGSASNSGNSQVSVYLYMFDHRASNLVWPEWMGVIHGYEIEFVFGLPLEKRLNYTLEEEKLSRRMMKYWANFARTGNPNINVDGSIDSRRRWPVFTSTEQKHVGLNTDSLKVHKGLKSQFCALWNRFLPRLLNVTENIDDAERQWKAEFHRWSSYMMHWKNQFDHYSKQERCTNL
BuChE, sequence (P06276 29-602): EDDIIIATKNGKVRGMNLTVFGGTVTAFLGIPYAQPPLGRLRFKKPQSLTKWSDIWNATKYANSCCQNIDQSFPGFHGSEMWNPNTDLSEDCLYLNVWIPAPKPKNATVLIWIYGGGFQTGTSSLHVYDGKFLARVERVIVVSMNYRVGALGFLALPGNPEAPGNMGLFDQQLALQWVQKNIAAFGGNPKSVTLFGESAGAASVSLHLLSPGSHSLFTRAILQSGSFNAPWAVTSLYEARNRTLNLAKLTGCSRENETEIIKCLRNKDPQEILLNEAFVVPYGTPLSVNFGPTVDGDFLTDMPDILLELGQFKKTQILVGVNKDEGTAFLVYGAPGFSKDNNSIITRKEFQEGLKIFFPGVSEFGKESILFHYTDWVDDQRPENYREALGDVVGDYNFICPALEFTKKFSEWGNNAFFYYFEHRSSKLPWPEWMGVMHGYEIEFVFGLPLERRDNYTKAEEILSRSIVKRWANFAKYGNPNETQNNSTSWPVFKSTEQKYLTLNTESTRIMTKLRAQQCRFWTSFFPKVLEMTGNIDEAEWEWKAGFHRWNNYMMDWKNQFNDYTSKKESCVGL

`S=C(NN=Cc1ccccc1)Nc1ccc2c(c1)OCO2` [Compound 1, 4-(1,3-Benzodioxole-5-yl)-1-(benzylidene)thiosemicarbazide]: the IC50 in series [1] is greater than 213 µM; in series [2], greater than 267 µM; in [3] it was greater than 167 µM; in series [4], greater than 167 µM; in [5] it was greater than 167 µM. Moreover, the “cytotoxicity (in words)” value in series [3] and in series [4] was “no significant cytotoxicity” throughout.

As for `O=[N+]([O-])c1ccc(C=NNC(=S)Nc2ccc3c(c2)OCO3)cc1` [Compound 2, 4-(1,3-Benzodioxole-5-yl)-1-(4-nitrobenzylidene)thiosemicarbazide], the IC50 in series [1] was greater than 213 µM; in series [2], greater than 232 µM; in series [3], 24 ± 3.46 µM; in [4], 23.3 ± 2.08 µM; in series [5], greater than 145 µM. The “DNA synthesis inhibition percent” value was 63.34% in series [6] and 59.85% in series [10]. Further, the “Early and Late Apoptotic Cells % C6 Cells” value in series [7] is 5.4%. In addition, in series [7], the “Viability % C6 Cells” value is given as 94.5%. Also, the “Early and Late Apoptotic Cells % A549 Cells” value in series [8] came out at 23.7%. Besides, the “Viability % A549 Cells” value in series [8] turned out to be 75.2%. In series [9], the “P2 (%) mitochondrial membrane polarized cells, A549 Cells” value is 4.5%. Also, the “P3 (%) mitochondrial membrane depolarized cells, A549 Cells” value in series [9] was 9.8%. Further, in [11], the “P2 (%) mitochondrial membrane polarized cells, C6 Cells” value was 44.8%. Also, the “P3 (%) mitochondrial membrane depolarized cells, C6 Cells” value in series [11] is 21.1%.

For the compound `N#Cc1ccc(C=NNC(=S)Nc2ccc3c(c2)OCO3)cc1` [Compound 3, 4-(1,3-Benzodioxole-5-yl)-1-(4-cyanobenzylidene)thiosemicarbazide], the IC50 was greater than 213 µM in series [1]; greater than 213 µM in [2]; 28 ± 1 µM in series [3]; 49.3 ± 1.15 µM in series [4]; greater than 154 µM in series [5]. In series [2], the “inhibitory activity against AChE (in words)” value was “did not show any inhibitory activity”. The “DNA synthesis inhibition percent” value in [6] is 54.99%; in [10] it was 53.24%.

Regarding `CN(C)c1ccc(C=NNC(=S)Nc2ccc3c(c2)OCO3)cc1` [Compound 4, 4-(1,3-Benzodioxole-5-yl)-1-(4-dimethylaminobenzylidene)thiosemicarbazide], the IC50 in series [1] is greater than 213 µM; in series [2] it was greater than 234 µM; in series [3], greater than 146 µM; in [4] it was greater than 146 µM; in [5], greater than 146 µM. Moreover, the “cytotoxicity (in words)” value in series [3] and in series [4] was “no significant cytotoxicity” in each case.

Consider `S=C(NN=Cc1ccc(-c2ccccc2)cc1)Nc1ccc2c(c1)OCO2` [Compound 5, 4-(1,3-Benzodioxole-5-yl)-1-[(biphenyl-4-yl)methylene]thiosemicarbazide], for which the IC50 in [1] was greater than 213 µM. In series [2], the “inhibitory activity against AChE (in words)” value is recorded as “did not show any inhibitory activity” and the IC50 was greater than 213 µM. Further, in series [6], the “DNA synthesis inhibition percent” value amounted to 62.98%. In [7], the “Early and Late Apoptotic Cells % C6 Cells” value came to 25.0%; the “Viability % C6 Cells” value was found to be 60.2%. In [8], the “Early and Late Apoptotic Cells % A549 Cells” value is recorded as 12.11%; the “Viability % A549 Cells” value is on record as 81.8%. Also, in [3], the IC50 is 10.7 ± 1.53 µM. Also, in [9], the “P2 (%) mitochondrial membrane polarized cells, A549 Cells” value stood at 52.7% and the “P3 (%) mitochondrial membrane depolarized cells, A549 Cells” value is on record as 24.6%. In addition, in series [10], the “DNA synthesis inhibition percent” value stood at 57.79%. Moreover, in [11], the “P2 (%) mitochondrial membrane polarized cells, C6 Cells” value turned out to be 49.8% and the “P3 (%) mitochondrial membrane depolarized cells, C6 Cells” value came to 45.0%. Moreover, the IC50 in series [4] is 4.33 ± 1.04 µM. The IC50 in series [5] was determined as 21.3 ± 5.77 µM.

For `Fc1ccc(C=NNC(=S)Nc2ccc3c(c2)OCO3)cc1` [Compound 6, 4-(1,3-Benzodioxole-5-yl)-1-(4-fluorobenzylidene)thiosemicarbazide], the IC50 in [1] was greater than 213 µM; in series [2], greater than 252 µM; in series [3], greater than 158 µM; in series [4], greater than 158 µM; in [5], 2.87 ± 0.05 µM. Also, the “cytotoxicity (in words)” value in series [3] and in series [4] was “no significant cytotoxicity” each time.

Consider `S=C(NN=Cc1ccc(Cl)cc1)Nc1ccc2c(c1)OCO2` [Compound 7, 4-(1,3-Benzodioxole-5-yl)-1-(4-chlorobenzylidene)thiosemicarbazide], for which, in series [1], the “inhibition on BuChE (in words)” value is given as “weak inhibition”. Also, the IC50 is greater than 240 µM in series [1]; greater than 240 µM in series [2]; greater than 150 µM in series [3]; greater than 150 µM in [4]; 9.5 ± 2.5 µM in series [5]. Besides, the “cytotoxicity (in words)” value in [3] and in [4] was “no significant cytotoxicity” in each case.

On to `S=C(NN=Cc1ccc(Br)cc1)Nc1ccc2c(c1)OCO2` [Compound 8, 4-(1,3-Benzodioxole-5-yl)-1-(4-bromobenzylidene)thiosemicarbazide], for which, in series [1], the “inhibition on BuChE (in words)” value is listed as “weak inhibition”. Besides, the IC50 in series [1] was greater than 212 µM; in series [2] it was greater than 212 µM; in [3] it was greater than 132 µM; in [4] it was greater than 132 µM; in series [5], 9.16 ± 2.47 µM. Besides, the “cytotoxicity (in words)” value in series [3] and in series [4] was “no significant cytotoxicity” in each case.

With `S=C(NN=Cc1ccc(Cl)c(Cl)c1)Nc1ccc2c(c1)OCO2` [Compound 9, 4-(1,3-Benzodioxole-5-yl)-1-(3,4-dichlorobenzylidene)thiosemicarbazide], the IC50 in series [1] was greater than 213 µM; in series [2], 205 ± 5 µM; in series [3], 51.5 ± 4.95 µM; in series [4], 25.3 ± 1.53 µM; in series [5], greater than 136 µM. Besides, the “DNA synthesis inhibition percent” value in [6] came to 37.71%; in series [10], 27.3%.
